# Active and inactive are the calls of the source. No cut-off for these calls is given here.
# Legend:
# [1] = target: T1, Epidermal growth factor receptor (Homo sapiens, UniProt P00533); assay: Inhibition of wild type EGFR (unknown origin) expressed in baculovirus expression system using poly (Glu, Tyr) 4:1 as substrate after 60 mins by ELISA
# NCI-H1975 = assay: Antiproliferative activity against human NCI-H1975 cells expressing EGFR T790M mutant after 72 hrs by SRB assay; assay type: functional, cell-based; settings: NCI-H1975, 72 h
# A-431 = assay: Antiproliferative activity against human A431 cells after 72 hrs by SRB assay; assay type: functional, cell-based; settings: A-431, 72 h
# [2] = target: Epidermal growth factor receptor (Homo sapiens, UniProt P00533, L858M/T790M); assay: Inhibition of EGFR T790M/[…] double mutant (unknown origin) expressed in baculovirus expression system using poly (Glu, Tyr) 4:1 as substrate after 60 mins by ELISA
# [3] = system: Epidermal growth factor receptor (Homo sapiens), P00533 [T790M]; assay: Inhibition of EGF-induced EGFR T790M mutant phosphorylation in human NCI-H1975 cells assessed as AKT phosphorylation at < 10 uM incubated for 1 hr prior to EGF induction measured after 10 mins by Western blotting analysis; assay type: cell-based
# [4] = system: Epidermal growth factor receptor (Homo sapiens), P00533 [T790M]; assay: Inhibition of EGF-induced EGFR T790M mutant autophosphorylation in human NCI-H1975 cells at 10 uM incubated for 1 hr prior to EGF induction measured after 10 mins by Western blotting analysis; assay type: cell-based
# [5] = system: Epidermal growth factor receptor (Homo sapiens), P00533 [T790M]; assay: Inhibition of EGF-induced EGFR T790M mutant phosphorylation in human NCI-H1975 cells assessed as ERK phosphorylation at < 10 uM incubated for 1 hr prior to EGF induction measured after 10 mins by Western blotting analysis; assay type: cell-based
# [6] = target: Insulin-like growth factor 1 receptor (Homo sapiens, UniProt P08069); assay: Inhibition of IGF1R (unknown origin) expressed in baculovirus expression system using poly (Glu, Tyr) 4:1 as substrate after 60 mins by ELISA
# [7] = target: Proto-oncogene tyrosine-protein kinase receptor Ret (Homo sapiens, UniProt P07949); assay: Inhibition of recombinant RET (unknown origin) using poly (Glu, Tyr) 4:1 as substrate after 60 mins by ELISA
# [8] = target: Receptor tyrosine-protein kinase erbB-2 (Homo sapiens, UniProt P04626); assay: Inhibition of ErbB2 (unknown origin) expressed in baculovirus expression system using poly (Glu, Tyr) 4:1 as substrate after 60 mins by ELISA
# [9] = target: Tyrosine-protein kinase ABL1 (Homo sapiens, UniProt P00519); assay: Inhibition of recombinant ABL (unknown origin) using poly (Glu, Tyr) 4:1 as substrate after 60 mins by ELISA
# [10] = target: Macrophage-stimulating protein receptor (Homo sapiens, UniProt Q04912); assay: Inhibition of recombinant RON (unknown origin) using poly (Glu, Tyr) 4:1 as substrate after 60 mins by ELISA
# [11] = target: Vascular endothelial growth factor receptor 1 (Homo sapiens, UniProt P17948); assay: Inhibition of recombinant FLT-1 (unknown origin) using poly (Glu, Tyr) 4:1 as substrate after 60 mins by ELISA
# [12] = target: Fibroblast growth factor receptor 1 (Homo sapiens, UniProt P11362); assay: Inhibition of FGFR1 (unknown origin) expressed in baculovirus expression system using poly (Glu, Tyr) 4:1 as substrate after 60 mins by ELISA
# [13] = target: T1, Epidermal growth factor receptor; assay: Irreversible inhibition of EGFR (unknown origin) using 5-FAM-EEPLYWSFPAKKK-CONH2 as substrate at 100 fold IC50 preincubated for 30 mins followed by 100 fold dilution measured for 2 hrs
# [14] = target: Receptor tyrosine-protein kinase erbB-4 (Homo sapiens, UniProt Q15303); assay: Inhibition of recombinant ErbB4 (unknown origin) using poly (Glu, Tyr) 4:1 as substrate after 60 mins by ELISA
# [15] = target: Platelet-derived growth factor receptor alpha (Homo sapiens, UniProt P16234); assay: Inhibition of recombinant PDGFR-alpha (unknown origin) using poly (Glu, Tyr) 4:1 as substrate after 60 mins by ELISA
# [16] = target: Mast/stem cell growth factor receptor Kit (Homo sapiens, UniProt P10721); assay: Inhibition of recombinant c-Kit (unknown origin) using poly (Glu, Tyr) 4:1 as substrate after 60 mins by ELISA
# [17] = target: Vascular endothelial growth factor receptor 2 (Homo sapiens, UniProt P35968); assay: Inhibition of KDR (unknown origin) expressed in baculovirus expression system using poly (Glu, Tyr) 4:1 as substrate after 60 mins by ELISA
# [18] = target: Platelet-derived growth factor receptor beta (Homo sapiens, UniProt P09619); assay: Inhibition of recombinant PDGFR-beta (unknown origin) using poly (Glu, Tyr) 4:1 as substrate after 60 mins by ELISA
# Ephrin type-A receptor 2 = Ephrin type-A receptor 2 (Homo sapiens, UniProt P29317); assay: Inhibition of recombinant EPHA2 (unknown origin) using poly (Glu, Tyr) 4:1 as substrate after 60 mins by ELISA
# [19] = target: T1, Epidermal growth factor receptor; assay: Inhibition of EGF-induced EGFR phosphorylation in human A431 cells incubated for 1 hr prior to EGF induction measured after 10 mins by Western blotting analysis; assay type: cell-based; settings: A-431
# [20] = target: T1, Epidermal growth factor receptor; assay: Inhibition of EGF-induced EGFR phosphorylation in human A431 cells at 0.01 uM incubated for 1 hr prior to EGF induction measured after 10 mins by Western blotting analysis; assay type: cell-based; settings: A-431
# [21] = target: T1, Epidermal growth factor receptor; assay: Inhibition of EGF-induced EGFR phosphorylation in human A431 cells assessed as decrease in AKT phosphorylation at 0.01 to 10 uM incubated for 1 hr prior to EGF induction measured after 10 mins by Western blotting analysis; assay type: cell-based; settings: A-431
# [22] = target: T1, Epidermal growth factor receptor; assay: Inhibition of EGF-induced EGFR phosphorylation in human A431 cells assessed as decrease in ERK phosphorylation at 0.01 to 10 uM incubated for 1 hr prior to EGF induction measured after 10 mins by Western blotting analysis; assay type: cell-based; settings: A-431
# Sequence of Epidermal growth factor receptor (Homo sapiens), P00533 [T790M] (P00533 whole entry T790M): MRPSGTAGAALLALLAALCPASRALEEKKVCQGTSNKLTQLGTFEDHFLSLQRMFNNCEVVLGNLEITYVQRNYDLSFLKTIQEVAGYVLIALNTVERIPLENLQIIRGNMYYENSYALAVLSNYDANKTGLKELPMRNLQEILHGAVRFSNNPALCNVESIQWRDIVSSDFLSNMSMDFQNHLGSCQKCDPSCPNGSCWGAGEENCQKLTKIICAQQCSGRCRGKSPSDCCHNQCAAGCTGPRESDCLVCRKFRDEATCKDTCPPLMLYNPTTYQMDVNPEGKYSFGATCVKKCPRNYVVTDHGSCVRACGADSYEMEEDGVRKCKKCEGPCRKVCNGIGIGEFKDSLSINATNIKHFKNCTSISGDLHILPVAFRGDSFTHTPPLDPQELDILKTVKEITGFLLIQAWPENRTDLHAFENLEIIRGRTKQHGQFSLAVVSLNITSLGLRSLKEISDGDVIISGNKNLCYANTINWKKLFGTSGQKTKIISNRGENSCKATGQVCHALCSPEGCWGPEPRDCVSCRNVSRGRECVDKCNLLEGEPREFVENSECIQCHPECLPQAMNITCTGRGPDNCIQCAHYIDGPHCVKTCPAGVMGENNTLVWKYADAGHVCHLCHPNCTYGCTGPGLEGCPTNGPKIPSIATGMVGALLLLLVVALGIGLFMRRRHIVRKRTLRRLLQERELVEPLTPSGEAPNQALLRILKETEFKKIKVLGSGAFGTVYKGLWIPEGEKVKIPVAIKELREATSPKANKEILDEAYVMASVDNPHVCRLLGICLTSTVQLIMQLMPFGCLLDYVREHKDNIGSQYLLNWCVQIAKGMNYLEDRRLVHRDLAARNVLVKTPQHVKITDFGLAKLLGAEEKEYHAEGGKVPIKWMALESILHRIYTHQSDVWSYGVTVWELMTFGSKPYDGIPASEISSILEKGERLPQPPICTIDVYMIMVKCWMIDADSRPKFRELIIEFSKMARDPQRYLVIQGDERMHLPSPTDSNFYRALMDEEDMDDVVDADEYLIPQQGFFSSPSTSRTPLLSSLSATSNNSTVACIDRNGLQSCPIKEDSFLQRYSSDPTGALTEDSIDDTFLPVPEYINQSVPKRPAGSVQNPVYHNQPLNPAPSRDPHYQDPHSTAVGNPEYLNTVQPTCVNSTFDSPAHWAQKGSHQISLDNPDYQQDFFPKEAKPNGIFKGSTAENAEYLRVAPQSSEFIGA
# T1 sequence (P00533 whole entry): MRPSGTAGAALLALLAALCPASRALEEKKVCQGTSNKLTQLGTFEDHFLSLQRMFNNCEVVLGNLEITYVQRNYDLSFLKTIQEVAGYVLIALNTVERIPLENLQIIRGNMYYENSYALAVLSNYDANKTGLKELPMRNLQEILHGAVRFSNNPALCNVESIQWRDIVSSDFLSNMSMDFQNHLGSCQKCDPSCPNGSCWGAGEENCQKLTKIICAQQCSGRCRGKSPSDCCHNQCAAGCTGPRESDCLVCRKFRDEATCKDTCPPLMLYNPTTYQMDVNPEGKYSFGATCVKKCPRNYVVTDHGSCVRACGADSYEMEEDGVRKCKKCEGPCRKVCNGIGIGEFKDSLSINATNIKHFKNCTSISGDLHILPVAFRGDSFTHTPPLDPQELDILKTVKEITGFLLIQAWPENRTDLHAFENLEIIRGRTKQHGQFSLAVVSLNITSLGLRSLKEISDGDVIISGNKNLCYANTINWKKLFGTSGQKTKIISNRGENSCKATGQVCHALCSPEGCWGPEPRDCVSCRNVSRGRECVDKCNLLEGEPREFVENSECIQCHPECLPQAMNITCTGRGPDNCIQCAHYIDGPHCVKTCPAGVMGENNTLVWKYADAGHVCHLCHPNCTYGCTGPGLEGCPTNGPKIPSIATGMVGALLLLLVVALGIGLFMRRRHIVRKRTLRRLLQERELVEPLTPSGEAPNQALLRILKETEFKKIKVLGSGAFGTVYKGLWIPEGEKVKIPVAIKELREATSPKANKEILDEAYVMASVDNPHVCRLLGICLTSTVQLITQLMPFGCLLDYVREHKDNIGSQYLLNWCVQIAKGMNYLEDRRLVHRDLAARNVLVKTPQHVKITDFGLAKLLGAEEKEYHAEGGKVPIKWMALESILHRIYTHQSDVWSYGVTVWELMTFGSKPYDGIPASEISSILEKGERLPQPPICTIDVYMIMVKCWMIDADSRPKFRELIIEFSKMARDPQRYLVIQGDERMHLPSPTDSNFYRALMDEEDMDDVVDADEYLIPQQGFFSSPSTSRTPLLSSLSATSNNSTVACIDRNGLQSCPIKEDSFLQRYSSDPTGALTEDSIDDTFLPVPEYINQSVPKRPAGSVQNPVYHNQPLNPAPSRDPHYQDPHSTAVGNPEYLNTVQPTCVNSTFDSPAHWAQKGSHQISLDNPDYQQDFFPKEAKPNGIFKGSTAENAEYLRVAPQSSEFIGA
# Sequence of Epidermal growth factor receptor (Homo sapiens, UniProt P00533, L858M/T790M) (P00533 25-1210 T790M/L858M limits assumed): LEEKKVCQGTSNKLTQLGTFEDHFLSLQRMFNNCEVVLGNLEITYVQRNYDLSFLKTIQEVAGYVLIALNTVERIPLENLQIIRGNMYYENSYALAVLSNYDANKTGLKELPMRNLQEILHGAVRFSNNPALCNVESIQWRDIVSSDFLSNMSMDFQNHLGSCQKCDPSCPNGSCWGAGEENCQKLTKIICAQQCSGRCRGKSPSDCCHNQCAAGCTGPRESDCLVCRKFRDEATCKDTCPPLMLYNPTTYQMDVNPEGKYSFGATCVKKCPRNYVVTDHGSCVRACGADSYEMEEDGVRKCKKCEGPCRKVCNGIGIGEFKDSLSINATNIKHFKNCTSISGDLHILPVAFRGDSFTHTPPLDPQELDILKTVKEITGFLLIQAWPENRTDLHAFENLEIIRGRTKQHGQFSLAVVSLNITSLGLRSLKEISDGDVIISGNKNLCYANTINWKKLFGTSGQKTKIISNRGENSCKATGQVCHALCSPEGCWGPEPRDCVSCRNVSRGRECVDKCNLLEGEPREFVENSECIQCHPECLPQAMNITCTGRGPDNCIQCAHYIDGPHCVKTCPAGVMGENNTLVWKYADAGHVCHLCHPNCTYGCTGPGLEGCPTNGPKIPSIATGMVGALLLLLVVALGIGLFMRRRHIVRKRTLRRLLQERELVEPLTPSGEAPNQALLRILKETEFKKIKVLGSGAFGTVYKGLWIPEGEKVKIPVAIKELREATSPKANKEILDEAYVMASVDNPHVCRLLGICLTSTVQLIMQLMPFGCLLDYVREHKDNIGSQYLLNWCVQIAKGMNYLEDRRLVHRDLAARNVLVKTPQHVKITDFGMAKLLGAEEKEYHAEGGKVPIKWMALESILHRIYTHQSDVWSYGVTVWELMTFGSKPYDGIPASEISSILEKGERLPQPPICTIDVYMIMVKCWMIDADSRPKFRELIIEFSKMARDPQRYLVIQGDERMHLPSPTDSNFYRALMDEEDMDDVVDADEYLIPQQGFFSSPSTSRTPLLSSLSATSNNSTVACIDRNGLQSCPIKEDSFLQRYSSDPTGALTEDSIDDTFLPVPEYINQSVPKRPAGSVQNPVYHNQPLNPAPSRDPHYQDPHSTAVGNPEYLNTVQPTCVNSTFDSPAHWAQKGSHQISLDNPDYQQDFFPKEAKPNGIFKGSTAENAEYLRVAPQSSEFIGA
# Sequence of Ephrin type-A receptor 2 (P29317 whole entry): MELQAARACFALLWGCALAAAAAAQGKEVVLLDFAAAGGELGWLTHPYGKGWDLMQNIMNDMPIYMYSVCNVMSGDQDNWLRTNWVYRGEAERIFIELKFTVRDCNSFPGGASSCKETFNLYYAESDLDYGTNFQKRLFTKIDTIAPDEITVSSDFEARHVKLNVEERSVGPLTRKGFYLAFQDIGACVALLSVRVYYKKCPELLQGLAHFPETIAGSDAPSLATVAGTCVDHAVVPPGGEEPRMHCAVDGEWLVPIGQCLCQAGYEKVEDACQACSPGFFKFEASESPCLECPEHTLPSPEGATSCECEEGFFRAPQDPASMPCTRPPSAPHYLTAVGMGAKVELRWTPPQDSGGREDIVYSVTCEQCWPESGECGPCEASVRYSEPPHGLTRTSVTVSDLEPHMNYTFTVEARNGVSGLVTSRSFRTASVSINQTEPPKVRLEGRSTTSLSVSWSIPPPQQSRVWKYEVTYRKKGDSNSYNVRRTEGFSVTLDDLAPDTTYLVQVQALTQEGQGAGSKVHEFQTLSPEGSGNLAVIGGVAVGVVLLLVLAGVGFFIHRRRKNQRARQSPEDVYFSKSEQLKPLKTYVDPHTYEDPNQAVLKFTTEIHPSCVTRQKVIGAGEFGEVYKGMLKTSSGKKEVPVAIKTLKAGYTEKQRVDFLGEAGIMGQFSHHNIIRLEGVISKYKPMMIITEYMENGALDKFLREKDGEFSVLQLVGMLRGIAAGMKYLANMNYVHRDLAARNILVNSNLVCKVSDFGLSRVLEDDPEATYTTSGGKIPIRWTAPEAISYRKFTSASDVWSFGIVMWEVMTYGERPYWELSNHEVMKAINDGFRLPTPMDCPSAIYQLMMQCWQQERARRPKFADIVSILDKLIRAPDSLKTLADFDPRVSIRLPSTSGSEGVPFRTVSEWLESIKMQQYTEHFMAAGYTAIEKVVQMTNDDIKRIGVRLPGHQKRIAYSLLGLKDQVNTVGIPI
SMILES,IC50 [1] [nM],IC50 (NCI-H1975) [nM],IC50 (A-431) [nM],IC50 [2] [nM],other results
CCN(CC)CCN(C)C(=O)Nc1cc2c(Nc3ccc(F)c(Cl)c3)ncnc2cc1O[C@H]1CCOC1,505,8300,481,392,
O=C(Nc1cc2c(Nc3ccc(F)c(Cl)c3)ncnc2cc1O[C@H]1CCOC1)N1CCC2(CC1)OCCO2,1720,32200,2180,5190,
O=C(Nc1cc2c(Nc3ccc(F)c(Cl)c3)ncnc2cc1O[C@H]1CCOC1)N1CC(F)C1,967,13400,5780,2170,
O=C(Nc1cc2c(Nc3ccc(F)c(Cl)c3)ncnc2cc1O[C@H]1CCOC1)N1CCC(N2CCCC2)CC1,265,9600,317,1590,
CN(C)C/C=C/C(=O)Nc1cc2c(Nc3ccc(F)c(Cl)c3)ncnc2cc1O[C@H]1CCOC1 [AFATINIB],,148,,,
O=C(Nc1cc2c(Nc3ccc(F)c(Cl)c3)ncnc2cc1O[C@H]1CCOC1)N1CCC(F)(F)CC1,859,32300,1860,5310,
O=C(NCCO)Nc1cc2c(Nc3ccc(F)c(Cl)c3)ncnc2cc1O[C@H]1CCOC1,,17600,598,,
O=C(NCCN1CCCCC1)Nc1cc2c(Nc3ccc(F)c(Cl)c3)ncnc2cc1O[C@H]1CCOC1,165,3200,116,447,
O=C(NCCN1CCOCC1)Nc1cc2c(Nc3ccc(F)c(Cl)c3)ncnc2cc1O[C@H]1CCOC1,82,5300,307,49,inhibition [3]: inactive; inhibition [4]: Active; inhibition [5]: inactive
O=C(Nc1cc2c(Nc3ccc(F)c(Cl)c3)ncnc2cc1O[C@H]1CCOC1)N1CCCC(F)(F)C1,884,43200,935,1890,
COC(=O)/C=C/CNC(=O)Nc1cc2c(Nc3ccc(F)c(Cl)c3)ncnc2cc1O[C@H]1CCOC1,404,9600,1410,265,
CN1CCN(C(=O)Nc2cc3c(Nc4ccc(F)c(Cl)c4)ncnc3cc2O[C@H]2CCOC2)CC1,464,12300,675,5580,
C#CCNC(=O)Nc1cc2c(Nc3ccc(F)c(Cl)c3)ncnc2cc1O[C@H]1CCOC1,232,14800,3730,374,
CN(C)CCCN(C)C(=O)Nc1cc2c(Nc3ccc(F)c(Cl)c3)ncnc2cc1O[C@H]1CCOC1,464,3300,200,5260,
O=C(Nc1cc2c(Nc3ccc(F)c(Cl)c3)ncnc2cc1O[C@H]1CCOC1)N1CC(O)C1,543,32200,1930,1420,
COC(CCNC(=O)Nc1cc2c(Nc3ccc(F)c(Cl)c3)ncnc2cc1O[C@H]1CCOC1)OC,544,> 100000,22000,400,
O=C(NCCN1CCCC1)Nc1cc2c(Nc3ccc(F)c(Cl)c3)ncnc2cc1O[C@H]1CCOC1,68,5300,247,61,IC50 [6]: > 10000 nM; IC50 [7]: 223 nM; IC50 [8]: 112 nM; IC50 [9]: > 10000 nM; inhibition [3]: inactive; inhibition [4]: Active; IC50 [10]: 6100 nM; IC50 [11]: > 10000 nM; IC50 [12]: > 10000 nM; inhibition [5]: inactive; inhibition [13]: Active; IC50 [14]: 12 nM; IC50 [15]: > 10000 nM; IC50 [16]: > 10000 nM; IC50 [17]: > 10000 nM; IC50 [18]: > 10000 nM; IC50 (Ephrin type-A receptor 2): > 10000 nM
O=C(Nc1cc2c(Nc3ccc(F)c(Cl)c3)ncnc2cc1O[C@H]1CCOC1)N1CCN(CCO)CC1,331,18200,1130,4210,
O=C(Nc1cc2c(Nc3ccc(F)c(Cl)c3)ncnc2cc1O[C@H]1CCOC1)N1CCC(CCO)CC1,304,25300,759,2940,
CN(C)CCCNC(=O)Nc1cc2c(Nc3ccc(F)c(Cl)c3)ncnc2cc1O[C@H]1CCOC1,24,6300,226,276,inhibition [19]: Dose-dependent effect; inhibition [20]: Active; inhibition [21]: Active; inhibition [22]: Active
COCCCNC(=O)Nc1cc2c(Nc3ccc(F)c(Cl)c3)ncnc2cc1O[C@H]1CCOC1,197,22700,4100,1660,
CN(C)CCN(C)C(=O)Nc1cc2c(Nc3ccc(F)c(Cl)c3)ncnc2cc1O[C@H]1CCOC1,281,8200,450,677,
CCN(CC)CCNC(=O)Nc1cc2c(Nc3ccc(F)c(Cl)c3)ncnc2cc1O[C@H]1CCOC1,365,5200,249,2240,
O=C(Nc1cc2c(Nc3ccc(F)c(Cl)c3)ncnc2cc1O[C@H]1CCOC1)N1CCC(F)CC1,699,33300,3040,1820,
CN(C)CCNC(=O)Nc1cc2c(Nc3ccc(F)c(Cl)c3)ncnc2cc1O[C@H]1CCOC1,635,4700,806,2080,
O=C(Nc1cc2c(Nc3ccc(F)c(Cl)c3)ncnc2cc1O[C@H]1CCOC1)N1CCC(F)(F)C1,1580,4500,1480,3120,
COCCNC(=O)Nc1cc2c(Nc3ccc(F)c(Cl)c3)ncnc2cc1O[C@H]1CCOC1,479,8300,387,3560,
CS(=O)(=O)CCNC(=O)Nc1cc2c(Nc3ccc(F)c(Cl)c3)ncnc2cc1O[C@H]1CCOC1,41,35200,1570,672,
CCN(CC)CCCNC(=O)Nc1cc2c(Nc3ccc(F)c(Cl)c3)ncnc2cc1O[C@H]1CCOC1,32,4300,196,3060,inhibition [19]: Dose-dependent effect; IC50 [6]: > 10000 nM; IC50 [7]: 347 nM; IC50 [8]: 78 nM; inhibition [20]: Active; IC50 [9]: 566 nM; IC50 [10]: > 10000 nM; IC50 [11]: > 10000 nM; IC50 [12]: > 10000 nM; IC50 [14]: 8 nM; inhibition [21]: Active; IC50 [15]: > 10000 nM; inhibition [22]: Active; IC50 [16]: > 10000 nM; IC50 [17]: > 10000 nM; IC50 [18]: > 10000 nM; IC50 (Ephrin type-A receptor 2): > 10000 nM

# Reference: ChEMBL document CHEMBL3091333, “Design, synthesis and biological evaluation of novel 4-anilinoquinazolines with C-6 urea-linked side chains as inhibitors of the epidermal growth factor receptor” (Bioorg Med Chem, 2013)
